Columns and labels:
Adenosine receptor A3 = target: T1, Adenosine receptor A3 (Homo sapiens, UniProt P0DMS8)
T1 sequence (P0DMS8 whole entry): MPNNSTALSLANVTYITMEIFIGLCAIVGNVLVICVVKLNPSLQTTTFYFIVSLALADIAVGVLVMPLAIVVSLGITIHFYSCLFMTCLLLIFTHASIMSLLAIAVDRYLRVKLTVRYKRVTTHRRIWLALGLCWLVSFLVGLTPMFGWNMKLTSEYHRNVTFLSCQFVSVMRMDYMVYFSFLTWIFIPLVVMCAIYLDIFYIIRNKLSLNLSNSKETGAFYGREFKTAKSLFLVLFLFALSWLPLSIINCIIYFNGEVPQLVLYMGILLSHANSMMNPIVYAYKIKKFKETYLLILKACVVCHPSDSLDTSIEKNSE

Adenosine receptor A2a = Adenosine receptor A2a (Homo sapiens, UniProt P29274)
[1] = target: T2, 5-hydroxytryptamine receptor 1A (Homo sapiens, UniProt P08908); format: functional, cell-based
T2 sequence (P08908 whole entry): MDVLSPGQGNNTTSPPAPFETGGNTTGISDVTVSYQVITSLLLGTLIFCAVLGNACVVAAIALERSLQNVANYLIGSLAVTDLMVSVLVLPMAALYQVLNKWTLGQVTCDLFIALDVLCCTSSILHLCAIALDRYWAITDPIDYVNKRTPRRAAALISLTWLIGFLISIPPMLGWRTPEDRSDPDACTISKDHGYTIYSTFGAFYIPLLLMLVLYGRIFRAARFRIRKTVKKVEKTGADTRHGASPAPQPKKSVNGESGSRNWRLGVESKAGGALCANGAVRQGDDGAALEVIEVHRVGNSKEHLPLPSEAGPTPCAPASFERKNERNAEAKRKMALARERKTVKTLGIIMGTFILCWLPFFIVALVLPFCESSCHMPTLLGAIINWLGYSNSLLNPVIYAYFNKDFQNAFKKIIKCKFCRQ

[2] = target: 5-hydroxytryptamine receptor 2B (Homo sapiens, UniProt P41595); format: functional, cell-based
[3] = target: Kappa-type opioid receptor (Homo sapiens, UniProt P41145)
D(3) dopamine receptor = D(3) dopamine receptor (Homo sapiens, UniProt P35462)
[4] = target: T3, Neuropeptide Y receptor type 1 (Homo sapiens, UniProt P25929)
T3 sequence (P25929 whole entry): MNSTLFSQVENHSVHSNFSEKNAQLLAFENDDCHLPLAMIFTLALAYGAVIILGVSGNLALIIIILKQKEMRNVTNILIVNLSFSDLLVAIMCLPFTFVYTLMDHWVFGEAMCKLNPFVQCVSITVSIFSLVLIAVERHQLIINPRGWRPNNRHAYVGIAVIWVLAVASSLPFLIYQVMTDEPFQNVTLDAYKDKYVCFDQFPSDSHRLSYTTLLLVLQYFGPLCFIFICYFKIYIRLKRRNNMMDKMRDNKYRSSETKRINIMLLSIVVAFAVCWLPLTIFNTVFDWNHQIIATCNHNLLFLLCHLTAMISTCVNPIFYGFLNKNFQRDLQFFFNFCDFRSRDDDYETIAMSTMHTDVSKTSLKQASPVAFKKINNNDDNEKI

D(1A) dopamine receptor = D(1A) dopamine receptor (Homo sapiens, UniProt P21728); format: functional, cell-based
[5] = target: T4, Amine oxidase [flavin-containing] A (Homo sapiens, UniProt P21397); format: functional
T4 sequence (P21397 whole entry): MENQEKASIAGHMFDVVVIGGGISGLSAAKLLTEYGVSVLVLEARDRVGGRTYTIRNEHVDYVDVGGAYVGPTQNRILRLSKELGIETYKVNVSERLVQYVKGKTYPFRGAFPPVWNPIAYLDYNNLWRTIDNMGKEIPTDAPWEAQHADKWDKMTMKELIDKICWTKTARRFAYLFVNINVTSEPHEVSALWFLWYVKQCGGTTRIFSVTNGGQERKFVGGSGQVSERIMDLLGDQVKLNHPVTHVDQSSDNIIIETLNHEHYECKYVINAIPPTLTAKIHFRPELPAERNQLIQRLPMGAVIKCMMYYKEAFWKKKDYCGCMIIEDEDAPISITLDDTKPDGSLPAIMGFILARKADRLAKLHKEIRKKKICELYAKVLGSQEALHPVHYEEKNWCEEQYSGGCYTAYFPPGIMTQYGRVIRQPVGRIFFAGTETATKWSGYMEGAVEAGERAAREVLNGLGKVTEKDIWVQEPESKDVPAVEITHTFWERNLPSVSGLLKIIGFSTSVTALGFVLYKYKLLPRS
Note: assay procedure not described here.

D(1A) dopamine receptor, sequence (P21728 whole entry): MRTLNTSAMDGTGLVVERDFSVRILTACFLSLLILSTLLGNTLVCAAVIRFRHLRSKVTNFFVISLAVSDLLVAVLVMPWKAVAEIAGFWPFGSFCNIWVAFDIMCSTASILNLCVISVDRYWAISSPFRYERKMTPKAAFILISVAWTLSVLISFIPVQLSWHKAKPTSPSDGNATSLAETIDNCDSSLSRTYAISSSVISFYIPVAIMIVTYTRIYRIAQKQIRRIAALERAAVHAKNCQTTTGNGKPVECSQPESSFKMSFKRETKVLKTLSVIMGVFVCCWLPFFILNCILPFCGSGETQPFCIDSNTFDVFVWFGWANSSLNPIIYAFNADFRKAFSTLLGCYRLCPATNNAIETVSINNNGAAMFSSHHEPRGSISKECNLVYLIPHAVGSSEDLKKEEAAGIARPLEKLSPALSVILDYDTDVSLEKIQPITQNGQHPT
Kappa-type opioid receptor, sequence (P41145 whole entry): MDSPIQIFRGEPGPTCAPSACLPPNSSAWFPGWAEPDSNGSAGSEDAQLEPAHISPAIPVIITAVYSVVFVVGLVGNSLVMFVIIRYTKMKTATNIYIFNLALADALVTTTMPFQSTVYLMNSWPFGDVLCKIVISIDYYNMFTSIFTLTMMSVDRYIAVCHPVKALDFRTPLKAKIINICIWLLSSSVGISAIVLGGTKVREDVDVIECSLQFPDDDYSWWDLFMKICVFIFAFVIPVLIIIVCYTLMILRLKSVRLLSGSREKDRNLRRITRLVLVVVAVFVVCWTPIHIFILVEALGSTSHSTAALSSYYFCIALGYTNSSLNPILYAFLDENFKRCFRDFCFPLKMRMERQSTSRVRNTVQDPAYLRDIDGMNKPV
Adenosine receptor A2a, sequence (P29274 whole entry): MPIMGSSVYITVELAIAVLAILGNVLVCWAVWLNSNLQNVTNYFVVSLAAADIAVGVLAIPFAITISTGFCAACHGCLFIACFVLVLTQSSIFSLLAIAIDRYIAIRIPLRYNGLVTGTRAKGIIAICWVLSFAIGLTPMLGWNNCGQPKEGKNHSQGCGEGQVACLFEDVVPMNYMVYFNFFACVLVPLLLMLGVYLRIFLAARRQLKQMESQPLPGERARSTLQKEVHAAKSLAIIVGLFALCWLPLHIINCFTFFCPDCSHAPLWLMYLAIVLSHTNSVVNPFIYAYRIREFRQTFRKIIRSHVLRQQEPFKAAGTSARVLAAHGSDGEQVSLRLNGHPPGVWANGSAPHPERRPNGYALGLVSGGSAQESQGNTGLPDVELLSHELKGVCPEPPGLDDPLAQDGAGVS
D(3) dopamine receptor, sequence (P35462 whole entry): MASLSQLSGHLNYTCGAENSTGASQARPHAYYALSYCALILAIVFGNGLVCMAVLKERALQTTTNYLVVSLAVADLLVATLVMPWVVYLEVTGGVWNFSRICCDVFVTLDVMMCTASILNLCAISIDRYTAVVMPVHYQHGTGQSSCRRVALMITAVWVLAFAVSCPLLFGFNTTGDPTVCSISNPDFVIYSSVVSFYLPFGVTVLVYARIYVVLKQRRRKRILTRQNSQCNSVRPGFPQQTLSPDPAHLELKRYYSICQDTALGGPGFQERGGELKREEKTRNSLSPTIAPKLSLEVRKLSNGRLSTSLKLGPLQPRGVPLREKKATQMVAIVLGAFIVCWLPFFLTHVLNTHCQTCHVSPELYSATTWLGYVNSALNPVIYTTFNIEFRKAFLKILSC
5-hydroxytryptamine receptor 2B, sequence (P41595 whole entry): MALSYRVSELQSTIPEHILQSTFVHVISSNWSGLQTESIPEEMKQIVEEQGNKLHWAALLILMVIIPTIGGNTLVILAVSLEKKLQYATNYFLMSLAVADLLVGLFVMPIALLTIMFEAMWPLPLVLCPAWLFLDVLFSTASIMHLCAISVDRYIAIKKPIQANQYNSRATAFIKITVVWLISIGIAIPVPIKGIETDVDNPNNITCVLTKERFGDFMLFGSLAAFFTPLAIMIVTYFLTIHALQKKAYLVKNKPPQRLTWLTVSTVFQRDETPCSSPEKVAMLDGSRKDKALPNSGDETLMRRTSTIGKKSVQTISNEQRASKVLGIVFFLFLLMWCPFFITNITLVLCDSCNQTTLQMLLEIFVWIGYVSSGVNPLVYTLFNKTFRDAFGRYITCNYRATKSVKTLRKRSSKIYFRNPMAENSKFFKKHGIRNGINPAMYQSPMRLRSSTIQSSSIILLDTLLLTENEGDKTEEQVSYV

SMILES | AC50 (Adenosine receptor A3) | AC50 (Adenosine receptor A2a) | AC50 [1] | AC50 [2] | AC50 [3] | AC50 (D(3) dopamine receptor) | AC50 [4] | AC50 (D(1A) dopamine receptor) | AC50 [5]
C[C@]12CC[C@H](O)CC1=CC[C@@H]1[C@@H]2CC[C@]2(C)C(c3cccnc3)=CC[C@@H]12 [ABIRATERONE] | > 30 µM | > 30 µM | > 10 µM | > 10 µM | > 10 µM | > 30 µM | > 30 µM | > 10 µM | > 10 µM
CC(=O)OCC[N+](C)(C)C [ACETYLCHOLINE] | > 30 µM | > 30 µM | 0.15 µM | > 10 µM | > 10 µM | > 30 µM | > 30 µM | > 10 µM | > 10 µM
O=C(Nc1nc(-c2cc(Cl)cs2)c(N2CCN(C3CCCCC3)CC2)s1)c1cnc(N2CCC(C(=O)O)CC2)c(Cl)c1 [AVATROMBOPAG] | > 10 µM | > 10 µM |  |  | > 10 µM | > 10 µM | > 10 µM |  | 
CN(C)C(=O)Oc1cc(OC(=O)N(C)C)cc(C(O)CNC(C)(C)C)c1 (centres undefined) [BAMBUTEROL] | > 30 µM | > 30 µM |  |  |  |  | > 30 µM |  | 
C[C@H]1C[C@H]2[C@@H]3CCC4=CC(=O)C=C[C@]4(C)[C@@]3(Cl)[C@@H](O)C[C@]2(C)[C@@]1(O)C(=O)CO [BECLOMETHASONE] | > 30 µM | > 30 µM |  |  | > 10 µM | > 10 µM | > 30 µM |  | > 10 µM
CO[C@@]1(NC(=O)CSCC#N)C(=O)N2C(C(=O)O)=C(CSc3nnnn3C)CS[C@@H]21 [CEFMETAZOLE] |  |  | > 30 µM | > 30 µM | > 30 µM | > 30 µM |  | > 30 µM | > 30 µM
NS(=O)(=O)c1cc(C2(O)NC(=O)c3ccccc32)ccc1Cl (centres undefined) [CHLORTHALIDONE] | > 10 µM | > 10 µM | > 10 µM | > 10 µM | > 10 µM | > 30 µM | > 10 µM | > 10 µM | > 10 µM
CC[C@H]1OC(=O)[C@H](C)[C@@H](O[C@H]2C[C@@](C)(OC)[C@@H](O)[C@H](C)O2)[C@H](C)[C@@H](O[C@@H]2O[C@H](C)C[C@H](N(C)C)[C@H]2O)[C@](C)(OC)C[C@@H](C)C(=O)[C@H](C)[C@@H](O)[C@]1(C)O [CLARITHROMYCIN] | > 30 µM | > 30 µM | > 30 µM | > 30 µM |  |  | > 30 µM | > 30 µM | > 30 µM
Oc1c(I)cc(Cl)c2cccnc12 [CLIOQUINOL] |  |  | > 30 µM | > 30 µM | > 30 µM | > 30 µM |  | > 30 µM | > 30 µM
C[C@@H]1CCC[C@H](C)N1NC(=O)c1ccc(Cl)c(S(N)(=O)=O)c1 [CLOPAMIDE] | > 30 µM | > 30 µM | > 30 µM | > 30 µM | > 30 µM | > 30 µM | > 30 µM | > 30 µM | > 30 µM
COc1ccc2c(c1)[C@]13CCCC[C@@H]1[C@H](C2)N(C)CC3 [DEXTROMETHORPHAN] | > 30 µM | > 30 µM | > 10 µM | > 10 µM |  | > 30 µM | > 30 µM | > 10 µM | > 10 µM
O=c1oc2ccccc2c(O)c1Cc1c(O)c2ccccc2oc1=O [DICUMAROL] | > 10 µM | > 10 µM | > 10 µM | > 10 µM | > 10 µM | > 30 µM | > 10 µM | > 10 µM | > 10 µM
O=C(O)CSCC(=O)NC1CCSC1=O (centres undefined) [ERDOSTEINE] | > 30 µM | > 30 µM | > 30 µM | > 30 µM | > 30 µM | > 30 µM | > 30 µM | > 30 µM | > 30 µM
COc1cccc(N(C)C(=S)Oc2ccc3c(c2)CCCC3)n1 [LIRANAFTATE] | > 30 µM | > 30 µM | > 30 µM | > 30 µM | 1.5 µM | > 30 µM | > 30 µM | > 30 µM | 18 µM
C#C[C@]1(O)CC[C@H]2[C@@H]3CCc4cc(OC)ccc4[C@H]3CC[C@@]21C [MESTRANOL] | > 30 µM | > 30 µM | > 10 µM | > 10 µM | > 10 µM | > 30 µM | > 10 µM | > 10 µM | > 30 µM
N=C(N)c1ccc2cc(OC(=O)c3ccc(N=C(N)N)cc3)ccc2c1 [NAFAMOSTAT] | 21 µM | > 30 µM | > 30 µM | > 30 µM | 17 µM | 4.6 µM | 10 µM | > 30 µM | 14 µM
O=C(O)c1cc(O)c2c3nc4ccccc4oc-3cc(=O)c2n1 [PIRENOXINE] | > 30 µM | > 30 µM | > 30 µM | > 30 µM | > 30 µM | 1.6 µM | > 30 µM | > 30 µM | 2.2 µM
NS(=O)(=O)c1cc(C(=O)O)cc(N2CCCC2)c1Oc1ccccc1 [PIRETANIDE] | > 30 µM | > 30 µM | > 30 µM | > 30 µM | > 30 µM | > 30 µM | > 30 µM | > 30 µM | > 30 µM
CNCCCC1c2ccccc2C=Cc2ccccc21 [PROTRIPTYLINE] | > 10 µM | > 10 µM | > 10 µM | > 10 µM |  | 0.85 µM | > 10 µM | > 10 µM | > 10 µM
COCCCOc1ccnc(C[S+]([O-])c2nc3ccccc3[nH]2)c1C (centres undefined) [RABEPRAZOLE] | 2.2 µM | > 30 µM | > 10 µM | > 10 µM | > 10 µM | > 10 µM | 20.5 µM | > 10 µM | > 10 µM
CC(C)=CCOc1ccc(/C=C/C(=O)c2ccc(OCC=C(C)C)cc2OCC(=O)O)cc1 [SOFALCONE] | 5.5 µM | > 30 µM | > 30 µM | > 30 µM | 12 µM | > 30 µM | > 30 µM | > 30 µM | > 30 µM
O=C(CCCN1CCC2(CC1)C(=O)NCN2c1ccccc1)c1ccc(F)cc1 [SPIPERONE] | > 30 µM | > 30 µM |  | 5.21 µM |  |  | > 30 µM |  | > 30 µM
CN(C)c1cc(NC(=O)CNC(C)(C)C)c(O)c2c1C[C@H]1C[C@H]3[C@H](N(C)C)C(O)=C(C(N)=O)C(=O)[C@@]3(O)C(O)=C1C2=O [TIGECYCLINE] | 26.9 µM | > 30 µM | > 30 µM | > 30 µM | > 30 µM | > 30 µM | > 30 µM | > 30 µM | > 30 µM
OCCN1CCN(CC/C=C2/c3ccccc3Sc3ccc(Cl)cc32)CC1 [ZUCLOPENTHIXOL] | > 10 µM | > 10 µM | > 10 µM | > 10 µM | 1.94 µM | 0.046 µM | > 10 µM | > 10 µM | > 10 µM

Source: ChEMBL document CHEMBL5291721, “A preclinical secondary pharmacology resource illuminates target-adverse drug reaction associations of marketed drugs” (Nat Commun, 2023)
